Measured values as given in the supplement of paper PMC10627819.

Columns and labels:
S. aureus DSM 20231 [1] = assay: Bliss interaction score (quartile over a dose matrix) (fitness difference); higher = more antagonism (negative = synergy)
Outline: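 Growth was read as OD595 when cultures entered stationary phase, and each value was divided by the plate's robust no-drug mean and capped at 1. This normalised ratio is the fitness value, and fitness for each single drug came from the combination data. The Bliss score subtracts the expected fitness, taken as the product, from the observed fitness and is given as quartiles across technical, biological and donor/recipient replicates.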

S. aureus DSM 20231 [2] = assay: fitness (endpoint OD595 vs no drug) (fraction); higher = more growth
Outline: (§1)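 Fitness was defined as the optical density at the transition into stationary phase relative to the robust mean of no-drug control wells. Values were capped at 1. Cultures were started at OD595 0.01 in 384-well plates (30 µl, or 55 µl for S. pneumoniae) in TSB, LB Lennox or CY at 37 °C. OD595 was recorded every 30 min over 14 h, with the first reading subtracted as background.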

S. aureus Newman = assay: as above
Outline: as §1

S. pneumoniae D39V = assay: as above
Outline: as §1
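Wherever Bliss interaction score (quartile over a dose matrix) is given: first quartile when negative (synergy) and third quartile when positive (antagonism).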

CN(C)C(=O)C(CCN1CCC(O)(c2ccc(Cl)cc2)CC1)(c1ccccc1)c1ccccc1 [Loperamide] + CCOC(=O)N1CCC(=C2c3ccc(Cl)cc3CCc3cccnc32)CC1 [Loratadine]
Settings | Bliss interaction score
S. aureus DSM 20231 [1] | -0.278

CCN(CC)C(=O)/C(C#N)=C/c1cc(O)c(O)c([N+](=O)[O-])c1 [Entacapone] + CO[C@@]12[C@H](COC(N)=O)C3=C(C(=O)C(C)=C(N)C3=O)N1C[C@@H]1N[C@@H]12 [MitomycinC]
Settings | Bliss interaction score
S. aureus DSM 20231 [1] | 0.176

CCCSc1nc(N[C@@H]2C[C@H]2c2ccc(F)c(F)c2)c2nnn([C@@H]3C[C@H](OCCO)[C@@H](O)[C@H]3O)c2n1 [Ticagrelor] + Oc1cc(Cl)ccc1Oc1ccc(Cl)cc1Cl [Triclosan]
Settings | Bliss interaction score
S. aureus DSM 20231 [1] | 0.247

CN(C)C(=O)C(CCN1CCC(O)(c2ccc(Cl)cc2)CC1)(c1ccccc1)c1ccccc1 [Loperamide] + CN1CCN(C2=Nc3ccccc3Oc3ccc(Cl)cc32)CC1 [Loxapine]
Settings | Bliss interaction score
S. aureus DSM 20231 [1] | 0.122

CC1(C)S[C@@H]2[C@H](NC(=O)[C@H](N)c3ccc(O)cc3)C(=O)N2[C@H]1C(=O)O [Amoxicillin] + N[C@@H]1CONC1=O [Cycloserine D]
fitness
Settings | first compound 0.0625 µg/mL | first compound 0.125 µg/mL | first compound 0.25 µg/mL | first compound 0.5 µg/mL
S. aureus DSM 20231 [2], partner 0.375 µg/mL | 0.579 | 0.382 | 0.0345 | 0.0039
S. aureus DSM 20231 [2], partner 0.75 µg/mL | 0.562 | 0.368 | 0.0204 | 0.0079
S. aureus DSM 20231 [2], partner 1.5 µg/mL | 0.554 | – | 0.0264 | 0.0072
S. aureus Newman, partner 0.375 µg/mL | 0.889 | 0.875 | 0.811 | –
S. aureus Newman, partner 0.75 µg/mL | 0.879 | 0.91 | 0.821 | –
S. aureus Newman, partner 1.5 µg/mL | 0.861 | 0.851 | 0.8 | –

CC1(C)S[C@@H]2[C@H](NC(=O)[C@H](N)c3ccc(O)cc3)C(=O)N2[C@H]1C(=O)O [Amoxicillin] + CCN(CC)CCOc1ccc(C(=C(Cl)c2ccccc2)c2ccccc2)cc1 [Clomiphene]
Settings | Bliss interaction score
S. aureus DSM 20231 [1] | -0.255

CC1(C)S[C@@H]2[C@H](NC(=O)[C@H](N)c3ccc(O)cc3)C(=O)N2[C@H]1C(=O)O [Amoxicillin] + CC(=O)Oc1cccc2c1C(=O)c1c(OC(C)=O)cc(C(=O)O)cc1C2=O [Diacerein]
Settings | Bliss interaction score
S. aureus DSM 20231 [1] | -0.192

CCCCCCCCCC(=O)N[C@@H](Cc1c[nH]c2ccccc12)C(=O)N[C@H](CC(N)=O)C(=O)N[C@@H](CC(=O)O)C(=O)N[C@@H]1C(=O)NCC(=O)N[C@@H](CCCN)C(=O)N[C@@H](CC(=O)O)C(=O)N[C@H](C)C(=O)N[C@@H](CC(=O)O)C(=O)NCC(=O)N[C@H](CO)C(=O)N[C@@H]([C@H](C)CC(=O)O)C(=O)N[C@@H](CC(=O)c2ccccc2N)C(=O)O[C@@H]1C [Daptomycin] + CO[C@@]12[C@H](COC(N)=O)C3=C(C(=O)C(C)=C(N)C3=O)N1C[C@@H]1N[C@@H]12 [Mitomycin C]
fitness
Settings | first compound 0.125 µg/mL | first compound 0.25 µg/mL | first compound 0.5 µg/mL | first compound 1 µg/mL | first compound 2 µg/mL | first compound 4 µg/mL
S. aureus DSM 20231 [2], partner 0.0156 µg/mL | – | – | 0.773 | 0.809 | 0.769 | –
S. aureus DSM 20231 [2], partner 0.0312 µg/mL | – | – | 0.791 | 0.778 | 0.744 | –
S. aureus DSM 20231 [2], partner 0.0625 µg/mL | – | – | 0.648 | 0.6 | 0.595 | –
S. aureus Newman, partner 0.0156 µg/mL | 0.775 | 0.778 | 0.773 | – | – | –
S. aureus Newman, partner 0.0312 µg/mL | 0.702 | 0.692 | 0.688 | – | – | –
S. aureus Newman, partner 0.0625 µg/mL | 0.57 | 0.54 | 0.545 | – | – | –
S. pneumoniae D39V, partner 0.001075 µg/mL | – | – | – | 0.897 | 0.905 | 0.94
S. pneumoniae D39V, partner 0.002 µg/mL | – | – | – | 0.771 | 0.776 | 0.739
S. pneumoniae D39V, partner 0.00215 µg/mL | – | – | – | 0.849 | 0.841 | 0.842
S. pneumoniae D39V, partner 0.004 µg/mL | – | – | – | 0.617 | 0.558 | 0.504
S. pneumoniae D39V, partner 0.0043 µg/mL | – | – | – | 0.719 | 0.723 | 0.723
S. pneumoniae D39V, partner 0.008 µg/mL | – | – | – | 0.285 | 0.307 | 0.242
